Test results reported in paper PMC10119930, “Dual Molecules Targeting 5-HT6 and GABA-A Receptors as a New Approach to Combat Depression Associated with Neuroinflammation” (ACS Chemical Neuroscience, 2023).
Several values for one entry are separate records, joined by “and”; a condition that tells them apart may be missing. Equal values may be shown once.

Legend:
[1] = tested on: human α1β2γ2-GABA-A receptors; test: Electrophysiological studies, automated patch clamp (QPatch16X), HEK293 cells; type: cell-based; details: agonist mode, compound at 10 μM; current amplitude normalized to 10 μM GABA response; ±S.E.M.
Method: Electrophysiological studies were acquired using the QPatch16X automatic patch clamp platform (Sophion Biosciences) as described before.[42],[43] […] Before the assay, cells were detached from the culture flask by treating them with TrypLE Express solution (Life Technologies) and subsequently suspended in serum-free media. The cells were loaded into a 1.5 mL microtube on the automated electrophysiology instrument, which subsequently performed a spin-down using its built-in centrifuge. Following this, the cells were washed with Ringer’s extracellular solution. The cells were moved to the pipetting wells of a 16-channel planar patch chip plate (QPlate 16X) designed for single-use. A combined suction/voltage protocol was then applied to establish gigaseals. […] During the entire whole-cell recording, the holding potential was maintained at −90 mV. […] The intracellular solution contained 140 mM CsF, 1 mM EGTA, 5 mM CsOH, 10 mM HEPES, 20 mMNaCl (pH 7.2, 320 mOsm). […] The acquired data were examined with QPatch assay software (v5.0, Sophion Biosciences)[44] and are represented as the mean of three separated measurements performed on distinct cells. The efficacy of the tested molecules was determined by calculating the baseline-corrected ratio of the maximum current amplitudes elicited by the tested compounds and the reference agonist (T1-ATG/AG1-ATG or T2-ATG/AG1-ATG). The raw current recordings were standardized and presented as a percentage of the current amplitude evoked by the reference agonist, using the QPatch assay software (v5.0, Sophion Biosciences).

[2] = Thermodynamic solubility in PBS; type: physicochemical; details: Dulbecco’s phosphate buffered saline, 22 °C, aqueous buffer, thermodynamic from solid, PBS pH 7.4, rt
Method: The temperature of the column was preserved at 30 °C. The experiment was conducted under the following conditions: a flow rate of 5 mL/min, eluent A (water/0.1% HCOOH), eluent B (MeCN/0.1% HCOOH), a gradient of starting from 0% of B to 100% of B over a duration of 3 min. Each sample was injected at a volume of 10 μL in triplicate. […] These solutions were then utilized to generate calibration curves by plotting AUC versus concentration in μg/mL. The examined molecules (2 mg) were dissolved in 1 mL of Dulbecco’s phosphate buffered saline (DPBS). The mixture was then continuously agitated at 22 °C for 24 h using a thermoshaker. Following this period, the mixtures were filtered through a cellulose acetate syringe filter (with a pore size of 0.22 μm), moved to a chromatographic vial, and analyzed. To quantify the investigated compounds, the areas beneath their respective peaks on DAD chromatograms were employed. Solubility was calculated using the calibration curves. […] All the experiments were performed in duplicate.

[3] = Parallel artificial membrane permeability assay (PAMPA); type: in vitro ADME; details: tested at 10^–5 M, PAMPA Plate System Gentest
Method: To estimate the passive transport through cell membranes, we used specialized PAMPA Plate System Gentest acquired from Corning (Tewksbury, MA, USA). The assay was performed as described in the manufacturer’s protocol. The quantitative measurements of tested molecules in apical and basolateral wells were conducted using LC/MS (Waters ACQUITY TQD system with the TQ detector, Milford, USA) and a specific internal standard. The Pe permeability coefficient was calculated rendering the formulas described previously[47],[47] and compared to the reference compound sulpiride.

[4] = Metabolic stability in rat liver microsomes; type: in vitro ADME; details: assayed at 10^–7 M
Method: The assay was performed by Eurofins Discovery, a contract research organization, according to standard methodology, described previously.[46]

BV-2 microglia cells = test: Evaluation of microglia morphology by fluorescence microscopy (MitoTracker) after LPS; type: cell-based, mouse; details: 10 μM pretreatment 1 h, LPS 18 h
female Wistar rats [5] = test: Forced swim test in rats; type: in vivo, rat
Method: (§1) Naïve female Wistar rats (weighing 180–200 g) were used in the study. The animals were housed in groups of three to four in standard Makrolon cages (37 cm × 21 cm × 15 cm) under strictly controlled laboratory conditions (ambient temperature 21–24 °C, relative humidity 45–65%) with a 12/12 h light–dark regime (light on at 6:00 a.m. and off at 6:00 p.m.). Animals had unrestricted access to tap water and food (typical pellets). Prior the experiment the animals were randomly appointed to the group. The behavioral studies were accomplished between 8:00 a.m. and 5:00 p.m. with the researcher blind to the study. The experiments were performed according to protocols approved by the Local Ethical Committee in Krakow (Approval Number 147/2018), Poland. Housing and experimental procedures were conducted under the European Union Directive of September 22, 2010 (2010/63/EU) and Polish legislation regarding animal studies. All efforts were made to minimize animal suffering and the number of animals used in the study.
(§2) Vortioxetine (Sigma, Germany) and the tested compounds (16 and 6) were dissolved in 10% cyclodextrin and administered ip 30 min before the test or during 14 consecutive days, with the last injection 60 min before the test. 10% cyclodextrin was administrated to control group.
(§3) A modified forced swim test was carried out according to Detke et al.[50],[51] First, the animals were individually placed inside Plexiglas cylinders, which were 40 cm high and 18 cm in diameter, filled with water at a temperature of 23–25 °C for 15 min. Afterward, the rats were transferred to a Plexiglas box and kept under a 60 W bulb for 30 min to dry. The day after, exactly 24 h later, the rats were once again placed in the cylinder, and their duration of immobility, swimming, and climbing was observed and recorded during a 5 min. The swimming behavior involved energetic movements such as horizontal swimming around the cylinder, while climbing activity referred to upward movements of the forepaws along the swim chamber’s side. Immobility was recorded when the rat only made necessary movements to keep its head above the water. For each test, a fresh water was provided. Open field test in rats: The test was conducted as previously reported by our research group.[52] The test was performed in a darkened room employing the Motor Monitor System (Campden Instruments, Ltd., U.K.). The system was equipped with two SmartFrame Open Field stations, each measuring 40 cm × 40 cm × 38 cm and consisting of 16 × 16 beams. These stations were placed inside sound-attenuating chambers and connected to a PC software using […]. The animals, belonging to either the vehicle-injected or drug-injected group, were individually positioned at the center of the station. The Motor Monitor System, which was automated, recorded the animal’s ambulation in both the X and Y axes, as well as the number of rearing and peeping episodes. Additionally, the total distance traveled by each animal during the 5 min test period was also recorded. Statistical analysis: Results are presented as the mean ± SEM values. They were estimated using one-way analysis of variance (ANOVA), followed by Newman–Keuls post hoc or unpaired two-tailed Student t test. Statistical significance was considered when p < 0.05 for differences between groups.

female Wistar rats [6] = test: Open field test in rats (locomotor activity); type: in vivo, rat; parameters: total distance traveled: unit not given here
Method: as §1, §2, §3

[7] = acute, 3 mg/kg ip 30 min before test
[8] = acute treatment, dose 3, ip 30 min prior
[9] = chronic treatment, dose 3, ip 14 days

Cc1c(OCc2ccccc2)cccc1N1CCN(CCOC(=O)CCCN)CC1.Cl.Cl [Compound 16, 1-(2-((4-Ammoniobutanoyl)oxy)ethyl)-4-(3-(benzyloxy)-2-methylphenyl)piperazin-1-ium Dichloride]
[%] of 10 μM GABA activity [1]: 24.7% and 24.7 ± 1.5% | solubility at 24 h [2]: > 2000 µg/mL | Papp [3]: 6.24 ×10⁻⁶ cm/s | rat liver microsomes Clint [4]: <115.5 (μL/min)/mg | rat liver microsomes t0,5 [4]: >60 min | mitochondrial membrane potential / morphology of microglia exposed to LPS (BV-2 microglia cells): protected the microglia from LPS insult | duration of swimming (female Wistar rats [5]; [7]): without affecting the duration of swimming | increase of climbing behaviors vs control group (female Wistar rats [5]; [7]): 336.5% | reduction of immobility time vs control group (female Wistar rats [5]; [7]): 31.9% | decrease of immobility time vs vehicle-treated group (female Wistar rats [5]; subchronic, 3 mg/kg ip for 14 days, test 60 min after last injection): 22.9% | X ambulation (female Wistar rats [6]; [8]): 221.3 | Y ambulation (female Wistar rats [6]; [8]): 213.7 | rearing (female Wistar rats [6]; [8]): 34.5 | total distance traveled (female Wistar rats [6]; [8]): 506.3 | influence on spontaneous locomotor activity (female Wistar rats [6]; acute, 3 mg/kg): did not observe any influence | X ambulation (female Wistar rats [6]; [9]): 260.4 | Y ambulation (female Wistar rats [6]; [9]): 255.3 | rearing (female Wistar rats [6]; [9]): 52.2 | total distance traveled (female Wistar rats [6]; [9]): 2575 | changes in spontaneous locomotor activity (female Wistar rats [6]; subchronic, 3 mg/kg): did not result in any significant changes
